Assay results reported in article PMC11539229 (Antimicrobial Agents and Chemotherapy, 2024).
pIC50: −log10 of the molar value. In brackets after ≈: the same amount, converted by molar mass.

Columns and labels:
hERG = hERG (Homo sapiens, UniProt Q12809); experiment: hERG Qpatch; format: biochemical
Protocol: hERG activity was measured as previously described ([35]).

physchem = format: physicochemical
Protocol: Solubility assays were performed using a miniaturized shake flask method. Stock solutions (10 mM) of each test compound were used to prepare calibration standards (10–220 μM) in DMSO and to spike (1:50) duplicate aqueous samples of FaSSIF (simulating fasting state biorelevant media, pH 6.5) with a final DMSO concentration of 2%. After shaking for 2 h at 25°C, the solutions were filtered and analyzed by means of high-performance liquid chromatography with diode-array detection (HPLC-DAD) (Agilent 1200 Rapid Resolution HPLC with a diode array detector). Best-fit calibration curves were constructed using the calibration standards, which were used to determine the aqueous sample solubility ([32]).

in vitro = in vitro ADME, canine; settings: dog, MDCK-MDR1
Protocol: (§1) Studies were performed as described by Polli et al. ([31]), with minor modifications. GF120918 was used as the inhibitor of P-gp. Apical-to-basolateral and basolateral-to-apical transports were studied across MDR1-MDCKII cell monolayers in the absence and presence of the P-gp inhibitor GF120918, and the Papp (intrinsic apparent permeability) was estimated in both directions with or without inhibitor.

[1] = test system: Madin-Darby canine kidney-MDR1; experiment: in vitro; format: in vitro ADME
Protocol: as §1

M. tuberculosis H37Rv = experiment: Acute murine model of intratracheal infection; format: in vivo, C57BL/6 mice; settings: oral once daily for 8 days
P-glycoprotein (P-gp) = biological target: T1, P-glycoprotein (P-gp) (Homo sapiens, UniProt P08183); experiment: Efflux ratio with and without P-gp inhibitor GF120918 in MDR1-MDCKII cells; format: in vitro ADME
T1 construct: expressed in transfected cells; host or cells: MDR1-MDCKII (Madin-Darby canine kidney cells expressing MDR1)
Protocol: The measured solubility in fasted state simulated intestinal fluid (FaSSIF) was high (Table 1). The permeability of GSK138 predicted from Madin-Darby canine kidney (MDCK) cells was also high (Table 1).
as §1

hERG, sequence (Q12809 whole entry): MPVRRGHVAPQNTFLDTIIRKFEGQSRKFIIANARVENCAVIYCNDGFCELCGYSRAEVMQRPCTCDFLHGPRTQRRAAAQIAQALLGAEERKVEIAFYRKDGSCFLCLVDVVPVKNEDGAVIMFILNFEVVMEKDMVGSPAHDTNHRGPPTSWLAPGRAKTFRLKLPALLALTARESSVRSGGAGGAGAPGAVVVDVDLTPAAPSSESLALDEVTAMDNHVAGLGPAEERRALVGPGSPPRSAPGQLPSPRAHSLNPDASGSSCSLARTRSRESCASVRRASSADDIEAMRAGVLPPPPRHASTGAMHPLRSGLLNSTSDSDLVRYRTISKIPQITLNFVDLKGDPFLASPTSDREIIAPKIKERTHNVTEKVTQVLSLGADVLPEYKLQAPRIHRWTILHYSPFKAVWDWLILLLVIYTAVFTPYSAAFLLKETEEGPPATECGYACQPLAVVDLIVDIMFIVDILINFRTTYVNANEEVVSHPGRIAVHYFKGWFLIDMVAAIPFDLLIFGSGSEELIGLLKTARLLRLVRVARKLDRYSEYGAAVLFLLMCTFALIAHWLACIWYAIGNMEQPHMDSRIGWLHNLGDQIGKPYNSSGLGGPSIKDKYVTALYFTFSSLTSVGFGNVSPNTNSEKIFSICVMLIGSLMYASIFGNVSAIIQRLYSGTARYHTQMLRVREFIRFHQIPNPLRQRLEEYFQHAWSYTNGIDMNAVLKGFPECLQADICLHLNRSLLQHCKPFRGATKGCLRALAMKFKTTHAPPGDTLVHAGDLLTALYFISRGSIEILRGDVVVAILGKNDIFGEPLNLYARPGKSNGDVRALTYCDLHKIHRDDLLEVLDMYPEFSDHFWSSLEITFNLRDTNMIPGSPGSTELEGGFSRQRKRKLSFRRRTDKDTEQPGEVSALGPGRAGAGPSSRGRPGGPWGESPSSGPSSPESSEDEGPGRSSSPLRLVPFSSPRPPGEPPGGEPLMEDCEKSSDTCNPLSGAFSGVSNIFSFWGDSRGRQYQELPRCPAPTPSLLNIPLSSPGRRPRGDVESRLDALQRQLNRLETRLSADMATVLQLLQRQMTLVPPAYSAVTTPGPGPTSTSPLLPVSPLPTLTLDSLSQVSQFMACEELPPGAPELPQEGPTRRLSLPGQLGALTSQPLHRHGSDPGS
T1 sequence (P08183 whole entry): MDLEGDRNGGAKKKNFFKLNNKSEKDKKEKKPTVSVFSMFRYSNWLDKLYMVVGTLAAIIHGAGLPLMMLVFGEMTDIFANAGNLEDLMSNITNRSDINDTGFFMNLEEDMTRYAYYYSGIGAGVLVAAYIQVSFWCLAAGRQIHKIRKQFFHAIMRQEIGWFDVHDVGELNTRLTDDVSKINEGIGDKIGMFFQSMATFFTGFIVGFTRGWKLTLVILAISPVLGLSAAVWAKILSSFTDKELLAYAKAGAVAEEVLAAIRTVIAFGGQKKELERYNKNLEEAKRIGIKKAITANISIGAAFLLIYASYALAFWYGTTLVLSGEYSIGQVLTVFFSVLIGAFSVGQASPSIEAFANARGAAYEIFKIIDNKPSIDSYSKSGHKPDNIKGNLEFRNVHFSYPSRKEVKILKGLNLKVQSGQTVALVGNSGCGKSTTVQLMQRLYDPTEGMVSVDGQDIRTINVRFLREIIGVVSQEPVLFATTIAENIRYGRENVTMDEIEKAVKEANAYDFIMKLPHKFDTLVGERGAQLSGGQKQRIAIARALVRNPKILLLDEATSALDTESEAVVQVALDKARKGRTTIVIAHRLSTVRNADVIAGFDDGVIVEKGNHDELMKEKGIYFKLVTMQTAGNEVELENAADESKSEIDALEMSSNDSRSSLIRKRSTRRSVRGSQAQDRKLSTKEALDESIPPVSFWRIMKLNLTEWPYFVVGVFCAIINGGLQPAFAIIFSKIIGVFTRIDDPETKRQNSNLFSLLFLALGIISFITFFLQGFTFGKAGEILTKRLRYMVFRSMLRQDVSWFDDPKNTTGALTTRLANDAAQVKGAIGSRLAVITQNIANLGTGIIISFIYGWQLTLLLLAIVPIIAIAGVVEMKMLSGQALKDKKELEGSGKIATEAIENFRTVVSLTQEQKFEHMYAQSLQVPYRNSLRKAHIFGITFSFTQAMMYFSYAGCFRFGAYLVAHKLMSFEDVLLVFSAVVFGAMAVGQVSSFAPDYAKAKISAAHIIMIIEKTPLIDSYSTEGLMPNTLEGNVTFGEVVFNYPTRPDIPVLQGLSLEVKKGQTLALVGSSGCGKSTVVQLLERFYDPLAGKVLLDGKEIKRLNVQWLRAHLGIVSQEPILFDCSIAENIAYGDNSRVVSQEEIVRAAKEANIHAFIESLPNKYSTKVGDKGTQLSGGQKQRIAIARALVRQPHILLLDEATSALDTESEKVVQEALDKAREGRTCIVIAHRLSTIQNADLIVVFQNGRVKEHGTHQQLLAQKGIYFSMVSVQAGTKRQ

Question: With `Cc1csc([C@](C)(O)c2nnc(Nc3cc(C)n(Cc4csc(C)n4)n3)s2)n1` [GSK138] as the compound, how does the pIC50 (hERG) read?
Answer: Its pIC50 is under 4.52.

Question: And the “solubility in FaSSIF” value (physchem)?
Answer: Its value is “high”.

Question: And the solubility at 2 h (physchem; pH 6.5)?
Answer: The solubility at 2 h was 140 to 320 µM (≈ 60.7 to 139 µg/mL).

Question: What about the Papp (in vitro) of the same compound?
Answer: The Papp was 37.4 ×10⁻⁶ cm/s.

Question: What about the “permeability predicted from MDCK cells” value [1] of the same compound?
Answer: Its value is “high”.

Question: And the “effect on bacteria at the highest doses” value (M. tuberculosis H37Rv)?
Answer: The value was “net killing of the bacteria”.

Question: What about the “ED99 (dose producing a 2-log10 reduction in CFUs compared to untreated control mice)” value (M. tuberculosis H37Rv; 95% CI 50–67) of the same compound?
Answer: Its value is 57 mg/kg.

Question: And the “EDmax (dose at which 90% of the maximum bactericidal effect was achieved)” value (M. tuberculosis H37Rv; 95% CI 125 to >290)?
Answer: The value was 167 mg/kg.

Question: What about the “P-gp substrate status from efflux ratio” value (P-glycoprotein (P-gp)) of the same compound?
Answer: Its value is “P-gp substrate”.
